Experiments:
Assay in all cases: radiometric filter-binding kinase assay
IRAK4 (human) = IRAK4 (human) (UniProt Q9NWZ3)
MELK (human) = MELK (human) (UniProt Q14680)
FGFR1 (human) = FGFR1 (human) (UniProt P11362)
MARK4 (human) = MARK4 (human) (UniProt Q96L34)
FLT1 (human) = FLT1 (human) (UniProt P17948)
PIM1 (human) = PIM1 (human) (UniProt P11309)
SYK (human) = SYK (human) (UniProt P43405)
INSR (human) = INSR (human) (UniProt P06213)
MAPK8 (human) = MAPK8 (human) (UniProt P45983)
MAP3K11 (human) = MAP3K11 (human) (UniProt Q16584)
CSNK1D (human) = CSNK1D (human) (UniProt P48730)
INSRR (human) = INSRR (human) (UniProt P14616)
BRSK1 (human) = BRSK1 (human) (UniProt Q8TDC3)
[1] = test system: SGK1 (human), O00141 [S422D]
PIM3 (human) = PIM3 (human) (UniProt Q86V86)
MAPK12 (human) = MAPK12 (human) (UniProt P53778)
RIPK2 (human) = RIPK2 (human) (UniProt O43353)
MYLK (human) = MYLK (human) (UniProt Q15746)
EPHB2 (human) = EPHB2 (human) (UniProt P29323)
RPS6KA3 KD1 KD2 (human) = RPS6KA3 KD1 KD2 (human) (UniProt P51812)
CLK2 (human) = CLK2 (human) (UniProt P49760)
EPHA4 (human) = EPHA4 (human) (UniProt P54764)
MAPKAPK3 (human) = MAPKAPK3 (human) (UniProt Q16644)
CDK2 CCNA2 (human) = CDK2 CCNA2 (human) (UniProt P20248+P24941)
[2] = test system: RPS6KB1 (human), P23443 [T412E]
MAP3K7 TAB1 (human) = MAP3K7 TAB1 (human) (UniProt Q15750+O43318)
AURKA (human) = AURKA (human) (UniProt O14965)
JAK2 JH1 JH2 (human) = JAK2 JH1 JH2 (human) (UniProt O60674)
MAP2K2 (human) = MAP2K2 (human) (UniProt P36507)
BRSK2 (human) = BRSK2 (human) (UniProt Q8IWQ3)
TTK (human) = TTK (human) (UniProt P33981)
[3] = test system: PAK2 (human), Q13177 [T402E]
PLK1 (human) = PLK1 (human) (UniProt P53350)
TBK1 (human) = TBK1 (human) (UniProt Q9UHD2)
CSK (human) = CSK (human) (UniProt P41240)

MAPK8 (human), sequence (P45983 whole entry, looked up): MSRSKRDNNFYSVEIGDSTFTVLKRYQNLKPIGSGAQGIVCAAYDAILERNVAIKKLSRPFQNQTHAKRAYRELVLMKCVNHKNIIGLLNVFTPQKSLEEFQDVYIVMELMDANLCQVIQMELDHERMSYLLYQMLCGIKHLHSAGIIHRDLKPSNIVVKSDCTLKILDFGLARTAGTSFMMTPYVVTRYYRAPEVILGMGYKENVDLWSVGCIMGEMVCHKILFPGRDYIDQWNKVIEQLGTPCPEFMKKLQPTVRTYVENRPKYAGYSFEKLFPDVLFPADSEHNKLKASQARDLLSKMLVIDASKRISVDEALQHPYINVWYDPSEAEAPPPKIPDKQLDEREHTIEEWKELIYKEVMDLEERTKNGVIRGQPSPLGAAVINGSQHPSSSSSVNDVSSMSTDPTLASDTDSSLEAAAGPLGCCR
MAPKAPK3 (human), sequence (Q16644 whole entry, looked up): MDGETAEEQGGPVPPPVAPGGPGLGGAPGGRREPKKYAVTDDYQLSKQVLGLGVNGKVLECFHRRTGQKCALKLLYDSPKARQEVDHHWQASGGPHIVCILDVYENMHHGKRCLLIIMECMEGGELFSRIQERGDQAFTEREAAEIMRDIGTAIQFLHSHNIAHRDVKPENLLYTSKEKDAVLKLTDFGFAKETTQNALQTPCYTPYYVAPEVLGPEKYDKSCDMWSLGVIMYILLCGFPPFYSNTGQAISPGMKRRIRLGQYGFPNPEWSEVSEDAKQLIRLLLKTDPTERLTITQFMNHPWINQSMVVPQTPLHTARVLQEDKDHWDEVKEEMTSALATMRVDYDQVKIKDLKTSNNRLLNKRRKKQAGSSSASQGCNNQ
PIM1 (human), sequence (P11309 whole entry, looked up): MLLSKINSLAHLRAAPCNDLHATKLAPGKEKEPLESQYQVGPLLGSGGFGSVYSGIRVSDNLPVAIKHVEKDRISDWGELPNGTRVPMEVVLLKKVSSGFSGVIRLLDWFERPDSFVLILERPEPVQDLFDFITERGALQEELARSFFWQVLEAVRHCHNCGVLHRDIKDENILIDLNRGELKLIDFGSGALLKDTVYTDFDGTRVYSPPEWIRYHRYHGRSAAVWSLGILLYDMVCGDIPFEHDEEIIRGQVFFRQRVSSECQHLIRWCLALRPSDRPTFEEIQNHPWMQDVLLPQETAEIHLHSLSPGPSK
TBK1 (human), sequence (Q9UHD2 whole entry, looked up): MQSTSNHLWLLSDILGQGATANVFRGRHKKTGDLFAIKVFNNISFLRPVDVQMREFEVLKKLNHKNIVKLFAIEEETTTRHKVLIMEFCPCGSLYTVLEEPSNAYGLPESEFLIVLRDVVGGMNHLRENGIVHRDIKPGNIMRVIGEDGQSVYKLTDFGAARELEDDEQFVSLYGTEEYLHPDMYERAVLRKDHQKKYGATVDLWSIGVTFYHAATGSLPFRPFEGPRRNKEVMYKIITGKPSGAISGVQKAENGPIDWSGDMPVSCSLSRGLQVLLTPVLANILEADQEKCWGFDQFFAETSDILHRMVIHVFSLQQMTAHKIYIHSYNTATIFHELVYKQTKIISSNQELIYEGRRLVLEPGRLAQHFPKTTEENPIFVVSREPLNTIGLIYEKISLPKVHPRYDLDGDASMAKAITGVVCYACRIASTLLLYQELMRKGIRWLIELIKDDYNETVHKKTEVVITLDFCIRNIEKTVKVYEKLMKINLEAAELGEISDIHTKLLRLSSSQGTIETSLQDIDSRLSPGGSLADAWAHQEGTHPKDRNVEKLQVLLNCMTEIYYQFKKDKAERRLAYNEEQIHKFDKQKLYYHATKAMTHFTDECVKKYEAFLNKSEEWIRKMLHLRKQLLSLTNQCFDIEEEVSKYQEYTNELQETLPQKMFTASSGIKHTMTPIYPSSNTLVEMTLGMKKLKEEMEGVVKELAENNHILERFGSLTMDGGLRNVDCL
INSR (human), sequence (P06213 whole entry, looked up): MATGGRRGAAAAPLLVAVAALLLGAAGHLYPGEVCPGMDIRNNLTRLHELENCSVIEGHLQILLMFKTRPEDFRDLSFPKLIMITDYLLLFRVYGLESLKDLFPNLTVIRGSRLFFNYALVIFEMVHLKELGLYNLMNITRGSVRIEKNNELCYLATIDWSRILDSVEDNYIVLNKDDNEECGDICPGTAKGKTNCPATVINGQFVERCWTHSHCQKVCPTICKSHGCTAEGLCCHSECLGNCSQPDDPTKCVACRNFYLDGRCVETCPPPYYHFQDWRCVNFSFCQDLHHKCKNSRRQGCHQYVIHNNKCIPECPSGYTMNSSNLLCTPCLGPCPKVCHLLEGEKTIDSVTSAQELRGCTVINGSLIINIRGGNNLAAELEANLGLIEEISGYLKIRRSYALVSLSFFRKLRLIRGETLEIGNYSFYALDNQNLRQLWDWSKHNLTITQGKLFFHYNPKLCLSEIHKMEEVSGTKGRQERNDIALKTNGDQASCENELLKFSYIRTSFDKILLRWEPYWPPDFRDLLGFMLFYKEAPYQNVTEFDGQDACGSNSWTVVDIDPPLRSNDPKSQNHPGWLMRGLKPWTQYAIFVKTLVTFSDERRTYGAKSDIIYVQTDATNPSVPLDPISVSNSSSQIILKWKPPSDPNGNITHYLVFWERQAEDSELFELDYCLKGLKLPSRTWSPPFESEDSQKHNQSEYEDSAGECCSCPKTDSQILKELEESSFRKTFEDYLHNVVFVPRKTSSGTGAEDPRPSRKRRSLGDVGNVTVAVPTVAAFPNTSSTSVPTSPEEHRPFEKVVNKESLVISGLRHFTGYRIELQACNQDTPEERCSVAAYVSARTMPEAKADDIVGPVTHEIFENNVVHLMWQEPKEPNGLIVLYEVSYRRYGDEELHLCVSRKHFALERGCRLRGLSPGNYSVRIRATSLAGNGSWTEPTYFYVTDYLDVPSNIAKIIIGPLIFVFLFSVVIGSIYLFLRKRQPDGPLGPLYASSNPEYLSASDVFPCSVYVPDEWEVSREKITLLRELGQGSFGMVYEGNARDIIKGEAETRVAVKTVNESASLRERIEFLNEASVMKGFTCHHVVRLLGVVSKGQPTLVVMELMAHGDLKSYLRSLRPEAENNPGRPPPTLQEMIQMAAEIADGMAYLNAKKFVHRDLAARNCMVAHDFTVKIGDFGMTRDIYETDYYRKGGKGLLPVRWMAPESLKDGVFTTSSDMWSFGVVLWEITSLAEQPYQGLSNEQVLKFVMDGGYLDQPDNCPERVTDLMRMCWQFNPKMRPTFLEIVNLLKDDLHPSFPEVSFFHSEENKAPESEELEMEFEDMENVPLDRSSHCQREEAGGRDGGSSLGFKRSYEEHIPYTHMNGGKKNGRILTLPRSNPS
IRAK4 (human), sequence (Q9NWZ3 whole entry, looked up): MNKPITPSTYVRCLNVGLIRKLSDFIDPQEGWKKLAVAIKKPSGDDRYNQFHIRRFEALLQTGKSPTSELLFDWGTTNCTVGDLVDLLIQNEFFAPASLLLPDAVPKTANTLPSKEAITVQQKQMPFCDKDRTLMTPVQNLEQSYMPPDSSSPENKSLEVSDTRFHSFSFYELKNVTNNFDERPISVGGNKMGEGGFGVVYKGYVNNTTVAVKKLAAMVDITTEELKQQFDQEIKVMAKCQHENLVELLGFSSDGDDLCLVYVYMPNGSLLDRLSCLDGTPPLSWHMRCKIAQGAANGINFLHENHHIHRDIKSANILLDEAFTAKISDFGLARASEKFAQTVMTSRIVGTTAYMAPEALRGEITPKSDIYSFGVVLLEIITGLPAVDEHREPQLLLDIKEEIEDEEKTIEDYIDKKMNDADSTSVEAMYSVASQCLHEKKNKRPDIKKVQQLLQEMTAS
AURKA (human), sequence (O14965 whole entry, looked up): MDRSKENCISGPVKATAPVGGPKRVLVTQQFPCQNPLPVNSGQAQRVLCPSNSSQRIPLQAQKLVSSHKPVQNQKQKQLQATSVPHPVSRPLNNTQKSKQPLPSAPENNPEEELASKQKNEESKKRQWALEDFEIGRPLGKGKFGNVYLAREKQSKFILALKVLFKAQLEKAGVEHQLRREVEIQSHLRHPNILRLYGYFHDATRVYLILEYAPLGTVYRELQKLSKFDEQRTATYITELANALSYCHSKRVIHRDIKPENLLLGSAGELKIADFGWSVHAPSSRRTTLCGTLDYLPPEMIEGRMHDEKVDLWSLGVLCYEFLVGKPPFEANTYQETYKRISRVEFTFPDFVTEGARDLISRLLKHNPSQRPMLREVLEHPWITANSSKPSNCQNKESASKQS
PAK2 (human), Q13177 [T402E], sequence (Q13177 whole entry T402E, looked up): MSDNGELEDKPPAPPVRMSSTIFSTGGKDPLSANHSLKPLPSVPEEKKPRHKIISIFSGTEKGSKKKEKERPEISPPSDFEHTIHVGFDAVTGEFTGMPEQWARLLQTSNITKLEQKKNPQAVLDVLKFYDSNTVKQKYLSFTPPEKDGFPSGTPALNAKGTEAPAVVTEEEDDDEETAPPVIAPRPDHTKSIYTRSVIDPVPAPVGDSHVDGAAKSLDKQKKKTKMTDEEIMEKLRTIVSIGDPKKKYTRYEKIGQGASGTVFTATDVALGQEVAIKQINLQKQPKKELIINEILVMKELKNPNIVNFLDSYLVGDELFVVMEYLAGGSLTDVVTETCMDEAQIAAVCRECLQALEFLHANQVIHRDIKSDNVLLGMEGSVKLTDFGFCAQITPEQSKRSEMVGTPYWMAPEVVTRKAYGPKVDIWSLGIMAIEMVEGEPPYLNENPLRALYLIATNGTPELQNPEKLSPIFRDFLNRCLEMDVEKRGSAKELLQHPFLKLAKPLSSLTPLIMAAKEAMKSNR

N#Cc1c(O)c2c(-c3ccc(-c4ccccc4O)cc3)csc2[nH]c1=O
residual activity (IRAK4 (human); compound 10.0 µM): 82% | residual activity (IRAK4 (human); compound 100.0 µM): 34% | residual activity (MELK (human); compound 10.0 µM): 46% | residual activity (MELK (human); compound 50.0 µM): 64% | residual activity (MELK (human); compound 100.0 µM): 21% | residual activity (FGFR1 (human); compound 10.0 µM): 109% | residual activity (FGFR1 (human); compound 50.0 µM): 95% | residual activity (FGFR1 (human); compound 100.0 µM): 50% | residual activity (MARK4 (human); compound 10.0 µM): 92% | residual activity (MARK4 (human); compound 100.0 µM): 45% | residual activity (FLT1 (human); compound 10.0 µM): 65% | residual activity (FLT1 (human); compound 100.0 µM): 11% | residual activity (PIM1 (human); compound 10.0 µM): 26% | residual activity (PIM1 (human); compound 50.0 µM): 5% | residual activity (PIM1 (human); compound 100.0 µM): 7% | residual activity (SYK (human); compound 10.0 µM): 106% | residual activity (SYK (human); compound 50.0 µM): 36% | residual activity (SYK (human); compound 100.0 µM): 42% | residual activity (INSR (human); compound 10.0 µM): 103% | residual activity (INSR (human); compound 100.0 µM): 69% | residual activity (MAPK8 (human); compound 10.0 µM): 99% | residual activity (MAPK8 (human); compound 50.0 µM): 102% | residual activity (MAPK8 (human); compound 100.0 µM): 93% | residual activity (MAP3K11 (human); compound 10.0 µM): 43% | residual activity (MAP3K11 (human); compound 100.0 µM): 4% | residual activity (CSNK1D (human); compound 10.0 µM): 88% | residual activity (CSNK1D (human); compound 50.0 µM): 60% | residual activity (CSNK1D (human); compound 100.0 µM): 88% | residual activity (INSRR (human); compound 10.0 µM): 88% | residual activity (INSRR (human); compound 50.0 µM): 90% | residual activity (INSRR (human); compound 100.0 µM): 51% | residual activity (BRSK1 (human); compound 10.0 µM): 76% | residual activity (BRSK1 (human); compound 100.0 µM): 51% | residual activity ([1]; compound 10.0 µM): 103% | residual activity ([1]; compound 50.0 µM): 54% | residual activity ([1]; compound 100.0 µM): 48% | residual activity (PIM3 (human); compound 10.0 µM): 18% | residual activity (PIM3 (human); compound 50.0 µM): 5% | residual activity (PIM3 (human); compound 100.0 µM): 7% | residual activity (MAPK12 (human); compound 10.0 µM): 95% | residual activity (MAPK12 (human); compound 50.0 µM): 80% | residual activity (MAPK12 (human); compound 100.0 µM): 83% | residual activity (RIPK2 (human); compound 10.0 µM): 110% | residual activity (RIPK2 (human); compound 100.0 µM): 139% | residual activity (MYLK (human); compound 10.0 µM): 76% | residual activity (MYLK (human); compound 50.0 µM): 39% | residual activity (MYLK (human); compound 100.0 µM): 20% | residual activity (EPHB2 (human); compound 10.0 µM): 93% | residual activity (EPHB2 (human); compound 100.0 µM): 13% | residual activity (RPS6KA3 KD1 KD2 (human); compound 10.0 µM): 74% | residual activity (RPS6KA3 KD1 KD2 (human); compound 50.0 µM): 27% | residual activity (RPS6KA3 KD1 KD2 (human); compound 100.0 µM): 13% | residual activity (CLK2 (human); compound 10.0 µM): 81% | residual activity (CLK2 (human); compound 100.0 µM): 30% | residual activity (EPHA4 (human); compound 10.0 µM): 93% | residual activity (EPHA4 (human); compound 100.0 µM): 64% | residual activity (MAPKAPK3 (human); compound 10.0 µM): 57% | residual activity (MAPKAPK3 (human); compound 50.0 µM): 48% | residual activity (MAPKAPK3 (human); compound 100.0 µM): 8% | residual activity (CDK2 CCNA2 (human); compound 10.0 µM): 100% | residual activity (CDK2 CCNA2 (human); compound 50.0 µM): 84% | residual activity (CDK2 CCNA2 (human); compound 100.0 µM): 121% | residual activity ([2]; compound 10.0 µM): 78% | residual activity ([2]; compound 50.0 µM): 66% | residual activity ([2]; compound 100.0 µM): 38% | residual activity (MAP3K7 TAB1 (human); compound 10.0 µM): 83% | residual activity (MAP3K7 TAB1 (human); compound 100.0 µM): 72% | residual activity (AURKA (human); compound 10.0 µM): 93% | residual activity (AURKA (human); compound 100.0 µM): 64% | residual activity (JAK2 JH1 JH2 (human); compound 10.0 µM): 83% | residual activity (JAK2 JH1 JH2 (human); compound 100.0 µM): 32% | residual activity (MAP2K2 (human); compound 10.0 µM): 74% | residual activity (MAP2K2 (human); compound 100.0 µM): 19% | residual activity (BRSK2 (human); compound 10.0 µM): 64% | residual activity (BRSK2 (human); compound 50.0 µM): 63% | residual activity (BRSK2 (human); compound 100.0 µM): 28% | residual activity (TTK (human); compound 10.0 µM): 76% | residual activity (TTK (human); compound 100.0 µM): 48% | residual activity ([3]; compound 10.0 µM): 94% | residual activity ([3]; compound 100.0 µM): 63% | residual activity (PLK1 (human); compound 10.0 µM): 88% | residual activity (PLK1 (human); compound 50.0 µM): 28% | residual activity (PLK1 (human); compound 100.0 µM): 25% | residual activity (TBK1 (human); compound 10.0 µM): 67% | residual activity (TBK1 (human); compound 50.0 µM): 55% | residual activity (TBK1 (human); compound 100.0 µM): 29% | residual activity (CSK (human); compound 10.0 µM): 79% | residual activity (CSK (human); compound 50.0 µM): 46% | residual activity (CSK (human); compound 100.0 µM): 82%

NC(=O)c1ccc(-c2ccc(Oc3cncc4sc(-c5nn[nH]n5)cc34)cc2)cc1
residual activity (IRAK4 (human); compound 1.0 µM): 88% | residual activity (IRAK4 (human); compound 10.0 µM): 74% | residual activity (MELK (human); compound 1.0 µM): 77% | residual activity (MELK (human); compound 10.0 µM): 62% | residual activity (FGFR1 (human); compound 1.0 µM): 105% | residual activity (FGFR1 (human); compound 10.0 µM): 61% | residual activity (MARK4 (human); compound 1.0 µM): 86% | residual activity (MARK4 (human); compound 10.0 µM): 78% | residual activity (FLT1 (human); compound 1.0 µM): 84% | residual activity (FLT1 (human); compound 10.0 µM): 24% | residual activity (PIM1 (human); compound 1.0 µM): 70% | residual activity (PIM1 (human); compound 10.0 µM): 18% | residual activity (SYK (human); compound 1.0 µM): 107% | residual activity (SYK (human); compound 10.0 µM): 95% | residual activity (INSR (human); compound 1.0 µM): 111% | residual activity (INSR (human); compound 10.0 µM): 108% | residual activity (MAPK8 (human); compound 1.0 µM): 93% | residual activity (MAPK8 (human); compound 10.0 µM): 77% | residual activity (MAP3K11 (human); compound 1.0 µM): 81% | residual activity (MAP3K11 (human); compound 10.0 µM): 25% | residual activity (CSNK1D (human); compound 1.0 µM): 90% | residual activity (CSNK1D (human); compound 10.0 µM): 59% | residual activity (INSRR (human); compound 1.0 µM): 79% | residual activity (INSRR (human); compound 10.0 µM): 26% | residual activity (BRSK1 (human); compound 1.0 µM): 110% | residual activity (BRSK1 (human); compound 10.0 µM): 90% | residual activity ([1]; compound 1.0 µM): 100% | residual activity ([1]; compound 10.0 µM): 68% | residual activity (PIM3 (human); compound 1.0 µM): 79% | residual activity (PIM3 (human); compound 10.0 µM): 21% | residual activity (MAPK12 (human); compound 1.0 µM): 86% | residual activity (MAPK12 (human); compound 10.0 µM): 65% | residual activity (RIPK2 (human); compound 1.0 µM): 94% | residual activity (RIPK2 (human); compound 10.0 µM): 22% | residual activity (MYLK (human); compound 1.0 µM): 86% | residual activity (MYLK (human); compound 10.0 µM): 35% | residual activity (EPHB2 (human); compound 1.0 µM): 106% | residual activity (EPHB2 (human); compound 10.0 µM): 99% | residual activity (RPS6KA3 KD1 KD2 (human); compound 1.0 µM): 77% | residual activity (RPS6KA3 KD1 KD2 (human); compound 10.0 µM): 44% | residual activity (CLK2 (human); compound 1.0 µM): 80% | residual activity (CLK2 (human); compound 10.0 µM): 12% | residual activity (EPHA4 (human); compound 1.0 µM): 103% | residual activity (EPHA4 (human); compound 10.0 µM): 112% | residual activity (MAPKAPK3 (human); compound 1.0 µM): 82% | residual activity (MAPKAPK3 (human); compound 10.0 µM): 87% | residual activity (CDK2 CCNA2 (human); compound 1.0 µM): 91% | residual activity (CDK2 CCNA2 (human); compound 10.0 µM): 105% | residual activity ([2]; compound 1.0 µM): 96% | residual activity ([2]; compound 10.0 µM): 64% | residual activity (MAP3K7 TAB1 (human); compound 1.0 µM): 82% | residual activity (MAP3K7 TAB1 (human); compound 10.0 µM): 75% | residual activity (AURKA (human); compound 1.0 µM): 103% | residual activity (AURKA (human); compound 10.0 µM): 78% | residual activity (JAK2 JH1 JH2 (human); compound 1.0 µM): 97% | residual activity (JAK2 JH1 JH2 (human); compound 10.0 µM): 74% | residual activity (MAP2K2 (human); compound 1.0 µM): 81% | residual activity (MAP2K2 (human); compound 10.0 µM): 75% | residual activity (BRSK2 (human); compound 1.0 µM): 92% | residual activity (BRSK2 (human); compound 10.0 µM): 95% | residual activity (TTK (human); compound 1.0 µM): 79% | residual activity (TTK (human); compound 10.0 µM): 51% | residual activity ([3]; compound 1.0 µM): 93% | residual activity ([3]; compound 10.0 µM): 90% | residual activity (PLK1 (human); compound 1.0 µM): 90% | residual activity (PLK1 (human); compound 10.0 µM): 24% | residual activity (TBK1 (human); compound 1.0 µM): 87% | residual activity (TBK1 (human); compound 10.0 µM): 63% | residual activity (CSK (human); compound 1.0 µM): 86% | residual activity (CSK (human); compound 10.0 µM): 100%

Reference: the kinase profiling compilation of Christmann-Franck et al. (2016)
